Measurements as given in patent US12030879B2, “Sulfonyl acetamides as NLRP3 inhibitors” (Inflazome Limited, priority 2018, dated 2024).

Each compound was assayed against T1, NLRP3 (Homo sapiens, UniProt Q96P20) (assay: THP-1 cells pyroptosis assay). Settings: LPS 1 μg/ml, compound 3 hrs, nigericin 5 μM 1 hr, resazurin readout.
T1 construct: Seed THP-1 cells (25,000 cells/well) containing 1.0 μg/ml LPS in 40 μl of RPMI medium; host or cells: THP-1 cells
Type: cell-based
Description: THP-1 cells (ATCC #TIB-202) were grown in RPMI containing L-glutamine (Gibco #11835) supplemented with 1 mM sodium pyruvate (Sigma #S8636) and penicillin (100 units/ml)/streptomycin (0.1 mg/ml) (Sigma #P4333) in 10% Fetal Bovine Serum (FBS) (Sigma #F0804). The cells were routinely passaged and grown to confluency (10^6 cells/ml). On the day of the experiment, THP-1 cells were harvested and resuspended into RPMI medium (without FBS). The cells were then counted and viability (>90%) checked by Trypan blue (Sigma #T8154). Appropriate dilutions were made to give a concentration of 625,000 cells/ml. To this diluted cell solution was added LPS (Sigma #L4524) to give a 1 μg/ml Final Assay Concentration (FAC). 40 μl of the final preparation was aliquoted into each well of a 96-well plate. The plate thus prepared was used for compound screening.
The following method step-by-step assay was followed for compound screening. • 1. Seed THP-1 cells (25,000 cells/well) containing 1.0 μg/ml LPS in 40 μl of RPMI medium (without FBS) in 96-well, black walled, clear bottom cell culture plates coated with poly-D-lysine (VWR #734-0317) • 2. Add 5 μl compound (8 points half-log dilution, with 10 μM top dose) or vehicle (DMSO 0.1% FAC) to the appropriate wells • 3. Incubate for 3 hrs at 37° C., 5% CO2 • 4. Add 5 μl nigericin (Sigma #N7143) (FAC 5 μM) to all wells • 5. Incubate for 1 hr at 37° C., 5% CO2 • 6. At the end of the incubation period, spin plates at 300×g for 3 mins and remove supernatant • 7. Then add 50 μl of resazurin (Sigma #R7017)(FAC 100 μM resazurin in RPMI medium without FBS) and incubate plates for a further 1-2 hrs at 37° C. and 5% CO2 • 8. Plates were read in an Envision reader at Ex 560 nm and Em 590 nm • 9. IC50 data is fitted to a non-linear regression equation (log inhibitor vs response-variable slope 4-parameters) 96-well Plate Map

T1 sequence (Q96P20 whole entry): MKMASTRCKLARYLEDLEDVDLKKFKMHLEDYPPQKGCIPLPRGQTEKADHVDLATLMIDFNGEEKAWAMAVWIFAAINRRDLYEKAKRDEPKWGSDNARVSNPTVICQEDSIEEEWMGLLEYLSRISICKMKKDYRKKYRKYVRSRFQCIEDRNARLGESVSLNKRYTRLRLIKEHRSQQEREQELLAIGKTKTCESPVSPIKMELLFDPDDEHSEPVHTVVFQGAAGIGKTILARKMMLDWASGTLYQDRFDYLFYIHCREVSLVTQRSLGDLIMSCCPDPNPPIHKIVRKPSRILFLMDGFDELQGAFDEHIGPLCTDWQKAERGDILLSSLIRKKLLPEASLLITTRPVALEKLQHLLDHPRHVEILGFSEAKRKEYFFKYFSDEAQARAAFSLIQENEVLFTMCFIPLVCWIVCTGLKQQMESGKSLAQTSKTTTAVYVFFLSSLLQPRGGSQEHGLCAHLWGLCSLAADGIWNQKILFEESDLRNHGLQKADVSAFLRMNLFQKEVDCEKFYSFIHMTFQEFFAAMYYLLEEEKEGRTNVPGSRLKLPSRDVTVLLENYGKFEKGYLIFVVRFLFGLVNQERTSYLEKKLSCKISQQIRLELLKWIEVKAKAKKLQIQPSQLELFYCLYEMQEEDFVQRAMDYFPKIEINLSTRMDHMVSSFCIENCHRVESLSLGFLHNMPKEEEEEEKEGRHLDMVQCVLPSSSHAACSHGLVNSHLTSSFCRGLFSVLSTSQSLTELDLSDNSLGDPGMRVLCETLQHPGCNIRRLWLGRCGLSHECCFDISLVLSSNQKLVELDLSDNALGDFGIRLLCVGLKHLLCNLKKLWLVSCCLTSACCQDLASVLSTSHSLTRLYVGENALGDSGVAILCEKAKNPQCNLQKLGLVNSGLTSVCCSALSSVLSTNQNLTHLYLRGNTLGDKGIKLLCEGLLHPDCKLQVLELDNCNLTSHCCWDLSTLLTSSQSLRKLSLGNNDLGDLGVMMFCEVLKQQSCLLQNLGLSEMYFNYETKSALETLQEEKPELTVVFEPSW

| Structure (SMILES) | IC50 [µM] |
| --- | --- |
| COc1cc(-c2cc(F)cc(C(C)(C)F)c2CC(=O)NS(=O)(=O)c2ccc(C(C)(C)O)cc2C)ccn1 [Example 86, 2-(4-Fluoro-2-(2-fluoropropan-2-yl)-6-(2-methoxypyridin-4-yl)phenyl)-N-((4-(2-hydroxypropan-2-yl)-2-methylphenyl)sulfonyl)acetamide] | ≤ 5 |
| COc1cc(-c2cc(F)cc(C(C)(C)F)c2CC(=O)NS(=O)(=O)c2cc(C(C)(C)O)cs2)ccn1 [Example 87, 2-(4-Fluoro-2-(2-fluoropropan-2-yl)-6-(2-methoxypyridin-4-yl)phenyl)-N-((4-(2-hydroxypropan-2-yl)thiophen-2-yl)sulfonyl)acetamide] | ≤ 0.5 |
| COc1cc(-c2cc(F)cc(C(C)C)c2CC(=O)NS(=O)(=O)c2ccc(C(C)(C)NC(C)=O)c(F)c2)ccn1 [Example 88, N-((4-(2-Acetamidopropan-2-yl)-3-fluorophenyl)sulfonyl)-2-(4-fluoro-2-isopropyl-6-(2-methoxypyridin-4-yl)phenyl)acetamide] | ≤ 5 |
| COc1cc(-c2cc(F)cc(C(C)C)c2CC(=O)NS(=O)(=O)c2cccc(C(C)(C)O)c2)ccn1 [Example 89, 2-(4-Fluoro-2-isopropyl-6-(2-methoxypyridin-4-yl)phenyl)-N-((3-(2-hydroxypropan-2-yl)phenyl)sulfonyl)acetamide] | ≤ 1 |
| COc1cc(-c2cc(F)cc(C(C)C)c2CC(=O)NS(=O)(=O)c2ccc(C(C)(C)NC(=O)OC(C)(C)C)c(F)c2)ccn1 [Example 90, tert-Butyl (2-(2-fluoro-4-(N-(2-(4-fluoro-2-isopropyl-6-(2-methoxypyridin-4-yl)phenyl)acetyl)sulfamoyl)phenyl)propan-2-yl)carbamate] | ≤ 0.5 |
| COc1cc(-c2cc(F)cc(C(C)C)c2CC(=O)NS(=O)(=O)c2ccc(C(C)(C)N(C)C)c(F)c2)ccn1 [Example 91, N-((4-(2-(Dimethylamino)propan-2-yl)-3-fluorophenyl)sulfonyl)-2-(4-fluoro-2-isopropyl-6-(2-methoxypyridin-4-yl)phenyl)acetamide] | ≤ 5 |
| COC(=O)c1cc(S(=O)(=O)NC(=O)Cc2c(-c3ccnc(OC)c3)cc(F)cc2C(C)C)ccc1F [Example 92, Methyl 2-fluoro-5-(N-(2-(4-fluoro-2-isopropyl-6-(2-methoxypyridin-4-yl)phenyl)acetyl)sulfamoyl)benzoate] | ≤ 5 |
| COc1cc(-c2cc(F)cc(C(C)C)c2CC(=O)NS(=O)(=O)c2ccc(Cl)cc2)ccn1 [Example 93, N-((4-Chlorophenyl)sulfonyl)-2-(4-fluoro-2-isopropyl-6-(2-methoxypyridin-4-yl)phenyl)acetamide] | ≤ 1 |
| COc1cc(-c2cc(F)cc(C(C)C)c2CC(=O)NS(=O)(=O)c2cnc3c(c2)c(C)nn3C)ccn1 [Example 94, N-((1,3-Dimethyl-1H-pyrazolo[3,4-b]pyridin-5-yl)sulfonyl)-2-(4-fluoro-2-isopropyl-6-(2-methoxypyridin-4-yl)phenyl)acetamide] | ≤ 1 |

The remaining lines, values ahead:

| IC50 [µM] | Structure (SMILES) |
| --- | --- |
| ≤ 10 | COc1cc(-c2cc(F)cc(C(C)C)c2CC(=O)NS(=O)(=O)c2ccc(NC(C)=O)cc2)ccn1 [Example 95, N-((4-Acetamidophenyl)sulfonyl)-2-(4-fluoro-2-isopropyl-6-(2-methoxypyridin-4-yl)phenyl)acetamide] |
| ≤ 10 | COc1cc(-c2cc(F)cc(C(C)C)c2CC(=O)NS(=O)(=O)c2ccc(C(=O)N(C)C)c(Cl)c2)ccn1 [Example 96, 2-Chloro-4-(N-(2-(4-fluoro-2-isopropyl-6-(2-methoxypyridin-4-yl)phenyl)acetyl)sulfamoyl)-N,N-dimethylbenzamide] |
| ≤ 5 | COc1ccc(-c2cc(F)cc(C(C)C)c2CC(=O)NS(=O)(=O)c2ccc(C(C)(C)O)cc2C)cn1 [Example 97, 2-(4-Fluoro-2-isopropyl-6-(6-methoxypyridin-3-yl)phenyl)-N-((4-(2-hydroxypropan-2-yl)-2-methylphenyl)sulfonyl)acetamide] |
| ≤ 0.5 | COc1cc(-c2cc(F)cc(C(C)C)c2CC(=O)NS(=O)(=O)c2ccc(C(C)(C)O)c(Cl)c2)ccn1 [Example 98, N-((3-Chloro-4-(2-hydroxypropan-2-yl)phenyl)sulfonyl)-2-(4-fluoro-2-isopropyl-6-(2-methoxypyridin-4-yl)phenyl)acetamide] |
| ≤ 0.5 | COc1ccncc1-c1cc(F)cc(C(C)C)c1CC(=O)NS(=O)(=O)c1cc(C(C)(C)O)cs1 [Example 99, 2-(4-Fluoro-2-isopropyl-6-(4-methoxypyridin-3-yl)phenyl)-N-((4-(2-hydroxypropan-2-yl)thiophen-2-yl)sulfonyl)acetamide] |
| ≤ 0.5 | Cc1cnccc1-c1cc(F)cc(C(C)C)c1CC(=O)NS(=O)(=O)c1cc(C(C)(C)O)cs1 [Example 100, 2-(4-Fluoro-2-isopropyl-6-(3-methylpyridin-4-yl)phenyl)-N-((4-(2-hydroxypropan-2-yl)thiophen-2-yl)sulfonyl)acetamide] |
| ≤ 0.5 | COc1cc(-c2cc(F)cc(C(C)C)c2CC(=O)NS(=O)(=O)c2ccc(Cl)c(C)c2)ccn1 [Example 101, N-((4-Chloro-3-methylphenyl)sulfonyl)-2-(4-fluoro-2-isopropyl-6-(2-methoxypyridin-4-yl)phenyl)acetamide] |
| ≤ 10 | COc1cc(-c2cc(F)cc(C(C)C)c2CC(=O)NS(=O)(=O)c2ccc(O)nc2C)ccn1 [Example 102, 2-(4-Fluoro-2-isopropyl-6-(2-methoxypyridin-4-yl)phenyl)-N-((6-hydroxy-2-methylpyridin-3-yl)sulfonyl)acetamide] |
| ≤ 10 | COc1cc(-c2cc(F)cc(C(C)C)c2C(F)C(=O)NS(=O)(=O)c2cc(C(C)(C)O)co2)ccn1 (centres unmarked) [Example 103, 2-Fluoro-2-(4-fluoro-2-isopropyl-6-(2-methoxypyridin-4-yl)phenyl)-N-((4-(2-hydroxypropan-2-yl)furan-2-yl)sulfonyl)acetamide] |
| ≤ 5 | COc1cc(-c2cc(F)cc(C(C)C)c2C(F)C(=O)NS(=O)(=O)c2cc(C(C)(C)O)cs2)ccn1 (centres unmarked) [Example 104, 2-Fluoro-2-(4-fluoro-2-isopropyl-6-(2-methoxypyridin-4-yl)phenyl)-N-((4-(2-hydroxypropan-2-yl)thiophen-2-yl)sulfonyl)acetamide] |
| ≤ 10 | COc1cc(-c2ccc3c(c2CC(=O)NS(=O)(=O)c2ncc(C(C)(C)O)s2)CCC3)ccn1 [Example 105, N-((5-(2-Hydroxypropan-2-yl)thiazol-2-yl)sulfonyl)-2-(5-(2-methoxypyridin-4-yl)-2,3-dihydro-1H-inden-4-yl)acetamide] |
| ≤ 5 | COc1cc(-c2cc(F)cc(C(C)C)c2CC(=O)NS(=O)(=O)c2ncc(C(C)(C)O)s2)ccn1 [Example 106, 2-(4-Fluoro-2-isopropyl-6-(2-methoxypyridin-4-yl)phenyl)-N-((5-(2-hydroxypropan-2-yl)thiazol-2-yl)sulfonyl)acetamide] |
| ≤ 5 | COc1cc(-c2ccc3c(c2CC(=O)NS(=O)(=O)c2cnc(C(C)(C)O)s2)CCC3)ccn1 [Example 107, N-((2-(2-Hydroxypropan-2-yl)thiazol-5-yl)sulfonyl)-2-(5-(2-methoxypyridin-4-yl)-2,3-dihydro-1H-inden-4-yl)acetamide] |
| ≤ 5 | COc1cc(-c2cc(F)cc(C(C)C)c2CC(=O)NS(=O)(=O)c2cnc(C(C)(C)O)s2)ccn1 [Example 108, 2-(4-Fluoro-2-isopropyl-6-(2-methoxypyridin-4-yl)phenyl)-N-((2-(2-hydroxypropan-2-yl)thiazol-5-yl)sulfonyl)acetamide] |
